Test systems include OVCAR-5; HCT-15; SK-MEL-5; RPMI-8226; IGROV-1; SNB-19; NCI-H23; HCC 2998; Hs-578T; T47D; MDA-MB-231; HT-29; U-251; EKVX; NCI/ADR-RES; A498; ACHN.
Holding throughout (experiment): growth of human tumour cells (NCI), 48 h

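48-hour exposure; five concentrations; linearly interpolated endpoints. GI50 marks 50% less growth.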 The source made the active and inactive calls. Cut-off read from the data, not from the text of the source: active = GI50 up to about 1.1 µM and inactive = higher. Square brackets hold non-standard residues; d marks the D form. Peptide text beside a SMILES is read from it. * marks the point of attachment. AllylGly = C=CC[CH](N)C(=O)O; Boc = CC(C)(C)OC(=O)*; OtBu = CC(C)(C)O* A value given as a limit tells only on which side of the number the result lay.

Turning to `COC(=O)C1=C(OC(=O)/C=C/c2ccccc2)C(C(=O)OC)[C@@]2(O)[C@@H](C(=O)OC)[C@H](C)C[C@@H]1[C@@H]2C(=O)OC` (some centres not stated), the GI50 in the experiment with OVCAR-5 is 11.7 µM (inactive); with HCT-15, 11.7 µM; with SK-MEL-5, 26.9 µM (inactive); in the experiment on RPMI-8226, 8.47 µM (inactive); in the experiment on IGROV-1, 25 µM (inactive); in the experiment with SNB-19, 26.2 µM (inactive). The GI50 with NCI-H23 is 17.3 µM (inactive); with HCC 2998 it was 19.4 µM (inactive); in the experiment on Hs-578T it was 14.7 µM (inactive); with T47D it was 24.5 µM (inactive); in the experiment on MDA-MB-231, 14.8 µM (inactive); in the experiment with HT-29 it was 24.7 µM (inactive). The GI50 with U-251 was 18.8 µM (inactive); with EKVX, 15.5 µM (inactive); in the experiment on NCI/ADR-RES, 16.7 µM (inactive); in the experiment on A498 it was 13.3 µM (inactive); with ACHN it was 22.8 µM (inactive).
For `c1csc(-c2cscc2-c2ccsc2)c1`, the GI50 with OVCAR-5 was > 69.2 µM (inactive); with HCT-15 it was 30.3 µM; in the experiment with SK-MEL-5, 75.9 µM (inactive); in the experiment on RPMI-8226 it was 34 µM (inactive); in the experiment with IGROV-1 it was 68.9 µM (inactive); in the experiment with SNB-19 it was > 57.5 µM (inactive). The GI50 in the experiment on NCI-H23 was 35.3 µM (inactive); with HCC 2998, 28.4 µM (inactive); with Hs-578T, 20.4 µM (inactive); in the experiment with T47D, > 55.1 µM (inactive); in the experiment on MDA-MB-231, > 100 µM (inactive); in the experiment with HT-29, > 84.9 µM (inactive). The GI50 is > 100 µM (inactive) in the experiment with U-251; 41.2 µM (inactive) in the experiment on EKVX; 48.1 µM (inactive) with NCI/ADR-RES; > 96.8 µM (inactive) in the experiment on A498; > 83.9 µM (inactive) in the experiment on ACHN.
In the case of `C=CCC(NC(=O)C(CC(=O)OC(C)(C)C)NC(=O)OC(C)(C)C)C(=O)OC` (configuration not stated) (Boc-Asp(OtBu)-[AllylGly]-OMe; configuration not given here), the GI50 in the experiment with OVCAR-5 is > 100 µM (inactive); in the experiment with HCT-15 it was above 100 µM; in the experiment with SK-MEL-5 it was 27.6 µM (inactive); in the experiment on RPMI-8226 it was 32.4 µM (inactive); in the experiment on IGROV-1, > 100 µM (inactive); in the experiment with SNB-19, > 100 µM (inactive). Further, the GI50 in the experiment with NCI-H23 was > 94.8 µM (inactive); in the experiment with HCC 2998 it was 25.9 µM (inactive); in the experiment on Hs-578T it was > 100 µM (inactive); with T47D it was 37.6 µM (inactive); in the experiment on MDA-MB-231 it was > 100 µM (inactive); in the experiment on HT-29, > 100 µM (inactive). Moreover, the GI50 is > 42.9 µM (inactive) with U-251; > 100 µM (inactive) in the experiment on EKVX; > 100 µM (inactive) in the experiment with NCI/ADR-RES; > 100 µM (inactive) with A498; > 100 µM (inactive) with ACHN.
For the molecule `COc1ccc(CC2c3cc(Oc4cc(CC5c6cc(OC)c(OC)cc6CCN5C)ccc4O)c(OC)cc3CCN2C)cc1` (configuration not stated), the GI50 is 9.44 µM (inactive) in the experiment on OVCAR-5; 2.17 µM in the experiment with HCT-15; 7.6 µM (inactive) in the experiment on SK-MEL-5; 2.44 µM (inactive) in the experiment with RPMI-8226; 8.59 µM (inactive) in the experiment with IGROV-1; 6.1 µM (inactive) with SNB-19. The GI50 in the experiment with NCI-H23 was 8.18 µM (inactive); in the experiment on HCC 2998, 1.14 µM (inactive); in the experiment on Hs-578T it was 9.62 µM (inactive); with T47D, 6.43 µM (inactive); in the experiment on MDA-MB-231 it was 7.91 µM (inactive); in the experiment with HT-29, 2.06 µM (inactive). Further, the GI50 with U-251 was 5.74 µM (inactive); in the experiment with EKVX, 8.65 µM (inactive); in the experiment with NCI/ADR-RES, 7.48 µM (inactive); in the experiment on A498, 7.96 µM (inactive); in the experiment on ACHN, 7.01 µM (inactive).
As for `c1ccc2c(OCC3CO3)ccc(OCC3CO3)c2c1` (configuration not stated), the GI50 in the experiment with OVCAR-5 is 11.2 µM (inactive); with HCT-15, 3.85 µM; in the experiment on SK-MEL-5, 6.64 µM (inactive); with RPMI-8226 it was 3.04 µM (inactive); with IGROV-1, 3.44 µM (inactive); with SNB-19, 8.13 µM (inactive). Further, the GI50 in the experiment with NCI-H23 was 2.51 µM (inactive); with HCC 2998, 11.8 µM (inactive); in the experiment on Hs-578T, 5.32 µM (inactive); with T47D, 1.91 µM (inactive); with MDA-MB-231, 10.5 µM (inactive); with HT-29 it was 4.82 µM (inactive). Moreover, the GI50 with U-251 was 2.32 µM (inactive); in the experiment with EKVX, 17.4 µM (inactive); with NCI/ADR-RES, 4.18 µM (inactive); in the experiment on A498, 17 µM (inactive); in the experiment with ACHN it was 1.89 µM (inactive).
In the case of `CC12CC3(O)OC(O1)C1(COC(=O)c4ccccc4)C3CC21OC1OC(CO)C(O)C(O)C1O` (configuration not stated), the GI50 is > 100 µM (inactive) in the experiment with OVCAR-5; above 100 µM in the experiment on HCT-15; > 100 µM (inactive) in the experiment on SK-MEL-5; > 100 µM (inactive) in the experiment on RPMI-8226; > 100 µM (inactive) in the experiment on IGROV-1; > 100 µM (inactive) with SNB-19. For the same molecule, the GI50 in the experiment on NCI-H23, with HCC 2998, with Hs-578T, with T47D, in the experiment on MDA-MB-231 and in the experiment on HT-29 was > 100 µM (inactive) throughout. Further, the GI50 in the experiment on U-251, in the experiment with EKVX, in the experiment with NCI/ADR-RES, in the experiment with A498 and with ACHN was > 100 µM (inactive) each time.
As for `CCOC(=O)CN1C(=O)c2ccc(NC(=O)C(=O)O)cc2S1(=O)=O`, the GI50 in the experiment with OVCAR-5 was > 100 µM (inactive); with HCT-15 it was above 100 µM; in the experiment with SK-MEL-5, > 100 µM (inactive); in the experiment with RPMI-8226, > 100 µM (inactive); in the experiment with IGROV-1, > 100 µM (inactive); with SNB-19, > 100 µM (inactive). The GI50 with NCI-H23, with HCC 2998, in the experiment with Hs-578T, in the experiment with T47D, with MDA-MB-231 and in the experiment with HT-29 was > 100 µM (inactive) throughout. Besides, the GI50 with U-251, in the experiment on EKVX, in the experiment on NCI/ADR-RES, with A498 and in the experiment on ACHN was > 100 µM (inactive) throughout.
In the case of `O=C(/C=C1\C[C@H]2C=Nc3ccccc3C(=O)N2C1)NCCCCNC(=O)/C=C1\C[C@H]2C=Nc3ccccc3C(=O)N2C1`, the GI50 is 19.2 µM (inactive) in the experiment with OVCAR-5; 8.89 µM in the experiment with HCT-15; 12.8 µM (inactive) in the experiment with SK-MEL-5; 4.24 µM (inactive) in the experiment on RPMI-8226; 14.5 µM (inactive) with IGROV-1; 16.6 µM (inactive) in the experiment on SNB-19. In addition, the GI50 was 11.3 µM (inactive) in the experiment on NCI-H23; 18 µM (inactive) in the experiment with HCC 2998; 29.4 µM (inactive) with Hs-578T; 4.39 µM (inactive) with T47D; 0.494 µM (active) with MDA-MB-231; 14.2 µM (inactive) in the experiment on HT-29. Also, the GI50 in the experiment with U-251 is 3.37 µM (inactive); in the experiment on EKVX, 16.7 µM (inactive); in the experiment on NCI/ADR-RES, 22.3 µM (inactive); with A498, 18.7 µM (inactive); with ACHN, 3.61 µM (inactive).
As for `[O-]c1c2cc(-[n+]3c(-c4ccccc4)cc(-c4ccccc4)cc3-c3ccccc3)cc1CO[C@@H](c1ccccc1)[C@H](c1ccccc1)OCc1cccc(n1)CO[C@@H](c1ccccc1)[C@H](c1ccccc1)OC2`, the GI50 in the experiment on OVCAR-5 was 0.514 µM (active); in the experiment on HCT-15, 0.74 µM; in the experiment with SK-MEL-5, 0.0424 µM (active); with RPMI-8226, 0.0135 µM (active); in the experiment on IGROV-1, 0.0388 µM (active); with SNB-19 it was 0.0514 µM (active). Further, the GI50 in the experiment with NCI-H23 was 0.0569 µM (active); with HCC 2998, 0.453 µM (active); in the experiment with Hs-578T, 0.676 µM (active); in the experiment with T47D it was 0.111 µM (active); with MDA-MB-231, 0.16 µM (active); in the experiment on HT-29, 0.0318 µM (active). The GI50 in the experiment on U-251 was 0.0285 µM (active); in the experiment on EKVX, 0.0838 µM (active); in the experiment on NCI/ADR-RES it was 1.97 µM (inactive); in the experiment on A498 it was 0.867 µM (active); in the experiment on ACHN it was 0.304 µM (active).
Consider `CCCC(=O)Nc1cc(/C=C/C(=O)N2CC(CCl)c3c2cc(OC(C)=O)c2[nH]cc(C)c32)n(C)c1` (configuration not stated), for which the GI50 is 7.24e-05 µM (active) with OVCAR-5; 0.000547 µM with HCT-15; < 2.5e-05 µM (active) in the experiment on SK-MEL-5; 0.000171 µM (active) in the experiment on RPMI-8226; 3.76e-05 µM (active) with IGROV-1; 0.00011 µM (active) with SNB-19. Further, the GI50 is < 2.5e-05 µM (active) with NCI-H23; < 2.5e-05 µM (active) in the experiment with HCC 2998; 6.56e-05 µM (active) in the experiment on Hs-578T; 6.3e-05 µM (active) in the experiment on T47D; 6.44e-05 µM (active) in the experiment on MDA-MB-231; 5.49e-05 µM (active) in the experiment with HT-29. In addition, the GI50 in the experiment with U-251 was < 2.5e-05 µM (active); with EKVX it was 0.000108 µM (active); in the experiment on NCI/ADR-RES it was 0.00024 µM (active); in the experiment on A498 it was 0.000116 µM (active); with ACHN it was < 2.5e-05 µM (active).
Consider `CN(C)Cc1cc(C(=O)/C=C/c2ccc(/C=C/C(=O)c3cc(CN(C)C)c(O)c(CN(C)C)c3)cc2)cc(CN(C)C)c1O`, for which the GI50 in the experiment with OVCAR-5 is 17.4 µM (inactive); with HCT-15, 29.6 µM; in the experiment with SK-MEL-5 it was 42.9 µM (inactive); with RPMI-8226, 23.4 µM (inactive); in the experiment with IGROV-1 it was 35.2 µM (inactive); in the experiment with SNB-19, > 100 µM (inactive). Moreover, the GI50 in the experiment on NCI-H23 is 18.7 µM (inactive); in the experiment with HCC 2998 it was 16.9 µM (inactive); in the experiment on Hs-578T, 58.2 µM (inactive); in the experiment on T47D it was > 100 µM (inactive); in the experiment on MDA-MB-231, 20.3 µM (inactive); in the experiment on HT-29, 13.5 µM (inactive). In addition, the GI50 in the experiment on U-251 was 15.6 µM (inactive); in the experiment on EKVX, 39.2 µM (inactive); with NCI/ADR-RES it was > 100 µM (inactive); in the experiment on A498, 57.9 µM (inactive); in the experiment on ACHN, 23.4 µM (inactive).

The record behind these values is ChEMBL document CHEMBL1201862, “PubChem BioAssay data set” (2004).
